In US11111259B2, “Acylsulfonamide derivatives for treating senescence-associated diseases and disorders” (Unity Biotechnology, Inc., priority 2015, dated 2021):

Experiments:
[1] = biological target: T1, BCL-w (Homo sapiens, UniProt Q92843); experiment: BCL-binding assay (AlphaLISA competition, BIM peptide); details: 6xHis BCL-w with biotinylated BIM peptide, 24 hr incubation
T1 sequence (Q92843 1-193): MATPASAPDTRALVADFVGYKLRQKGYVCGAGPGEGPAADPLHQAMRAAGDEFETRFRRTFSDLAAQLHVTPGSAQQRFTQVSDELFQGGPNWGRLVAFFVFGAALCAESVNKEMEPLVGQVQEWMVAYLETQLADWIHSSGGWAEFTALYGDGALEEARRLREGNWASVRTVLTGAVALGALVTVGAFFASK
Procedure: (§1) Compounds were prepared as 400× DMSO stock solutions in a 1:4 dilution series then diluted […] in assay buffer (25 mM HEPES pH 7.5, 100 mM NaCl, 0.1% BSA, 0.005% Tween) immediately before use. Aliquots of 400 nM 6xHis-tagged BCL-xL, BCL-2, and BCL-w were thawed on ice and diluted to 0.4 (BCL-XL) or 0.8 (BCL-W and 2) nM in assay buffer. Aliquots of biotinylated BIM and BAD peptides were diluted in assay buffer to 120 and 60 nM respectively. Ten microliters of biotinylated peptide were added to wells of a 96-well PCR plate, followed by ten microliters of inhibitor, then ten microliters of BCL protein, BCL-XL with BAD and BCL-W/2 with BIM. The plates were sealed and incubated at room temperature. After 24 hr, 0.16 μg Anti-His conjugated AlphaLISA acceptor beads were added in 5 μL assay buffer. After one hour at room temperature, 0.16 μg AlphaScreen streptavidin donor beads were added in 5 μL assay buffer and plates were incubated an additional 30 min in the dark. Two 17 μL aliquots of each reaction were plated in a Perkin Elmer 384-well proxiplate, and plates were scanned for using a Perkin Elmer Enspire plate reader. Kd values were calculated in Prism Graph Pad using a one site competitive binding model and previously determined Kd values for each protein peptide pair. […]

[2] = biological target: BCL-2 (Homo sapiens, UniProt P10415); experiment: as above; details: 6xHis BCL-2 with biotinylated BIM peptide, 24 hr incubation
Procedure: as §1

[3] = biological target: BCL-xL (Homo sapiens, UniProt Q07817); experiment: BCL-binding assay (AlphaLISA competition, BAD peptide); details: 6xHis BCL-xL with biotinylated BAD peptide, 24 hr incubation
Procedure: as §1

[4] = tested on: IMR-90 SnC (irradiated senescent IMR90 cells); experiment: Senolysis assay (CellTiter-Glo viability); format: cell-based, human; details: for EC50: Homo sapiens, IMR-90, light or radiation study, 72 h, X-ray irradiated senescent IMR90 cells, viability three days after compound addition; for SI (ratio of EC50 of non-senescent cells to EC50 of senescent cells): IMR90 non-senescent vs senescent cells
Procedure: IMR90 cells are maintained in DMEM supplemented with 10% FBS. To prepare a senescent population, cells were trypsinized, diluted to 50,000 per mL, and irradiated with 10-15 Gy of X-ray irradiation. Irradiated cells were plated at 5000 cells per well in one third of a 96-well plate and maintained for two weeks prior to the assay. Four days prior to the assay, non-senescent IMR90s were plated at 2500 per well in the second third of the plate. One day prior to the assay, 2500 non-senescent cells were plated in the final third of the plate. Compounds were prepared as a 200×DMSO dilution series then diluted to 1× in media immediately before adding to cells. Three days after compound addition, cell viability was measured using CellTiter-Glo reagent from Promega. Viability was calculated relative to a DMSO control and EC50 values are calculated in Prism GraphPad. […] The selectivity (SI) of the compounds described herein is a ratio of the EC50 of non-senescent cells to the EC50 of senescent cells. The SI of the compounds described herein is 10 or above for “A” selectivity, between 2 and 10 for “B” selectivity or 2 or less for “C” selectivity.

Chain of BCL-xL (Q07817 whole entry, species assumed): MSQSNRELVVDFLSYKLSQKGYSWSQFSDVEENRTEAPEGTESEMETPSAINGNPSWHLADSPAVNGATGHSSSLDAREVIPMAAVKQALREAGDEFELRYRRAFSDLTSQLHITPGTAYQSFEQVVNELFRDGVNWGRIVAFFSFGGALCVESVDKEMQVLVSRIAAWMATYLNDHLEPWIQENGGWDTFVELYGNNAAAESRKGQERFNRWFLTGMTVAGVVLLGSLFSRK
Chain of BCL-2 (P10415 whole entry, species assumed): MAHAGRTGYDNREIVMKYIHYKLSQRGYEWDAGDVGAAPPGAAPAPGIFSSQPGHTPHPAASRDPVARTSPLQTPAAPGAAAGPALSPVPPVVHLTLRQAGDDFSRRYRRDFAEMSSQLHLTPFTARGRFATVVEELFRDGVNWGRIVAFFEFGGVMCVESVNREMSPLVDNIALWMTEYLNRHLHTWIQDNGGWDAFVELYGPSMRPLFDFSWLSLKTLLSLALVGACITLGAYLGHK

Compound | Kd [1] | Kd [2] | Kd [3] | EC50 [4] | SI (ratio of EC50 of non-senescent cells to EC50 of senescent cells) [4]
COP(=O)(CN1CCN(CC[C@H](CSc2ccccc2)Nc2ccc(S(=O)(=O)NC(=O)c3ccc(N4CCN(CC5=C(c6ccc(Cl)cc6)CCC(C)(C)C5)CC4)cc3)cc2S(=O)(=O)C(F)(F)F)CC1)OC [Compound 16] | 1 to 10 nM | < 1 nM | < 1 nM | < 1000 nM | A (10 or above)
CCOP(=O)(CCCN1CCN(CC[C@H](CSc2ccccc2)Nc2ccc(S(=O)(=O)NC(=O)c3ccc(N4CCN(CC5=C(c6ccc(Cl)cc6)CCC(C)(C)C5)CC4)cc3)cc2S(=O)(=O)C(F)(F)F)CC1)OCC [Compound 23] | 1 to 10 nM | < 1 nM | < 1 nM | < 1000 nM | A (10 or above)
COP(=O)(CCCN1CCN(CC[C@H](CSc2ccccc2)Nc2ccc(S(=O)(=O)NC(=O)c3ccc(N4CCN(CC5=C(c6ccc(Cl)cc6)CCC(C)(C)C5)CC4)cc3)cc2S(=O)(=O)C(F)(F)F)CC1)OC [Compound 24] | 1 to 10 nM | < 1 nM | < 1 nM | < 1000 nM | A (10 or above)
CC1(C)CCC(c2ccc(Cl)cc2)=C(CN2CCN(c3ccc(C(=O)NS(=O)(=O)c4ccc(N[C@H](CCN5CCN(CCCP(=O)(Oc6ccccc6)Oc6ccccc6)CC5)CSc5ccccc5)c(S(=O)(=O)C(F)(F)F)c4)cc3)CC2)C1 [Compound 25] | > 50 nM | < 1 nM | 1 to 10 nM | > 10000 nM | C (2 or less)
CCOP(=O)(CN1CCN(CC[C@H](CSc2ccccc2)Nc2ccc(S(=O)(=O)NC(=O)c3ccc(N4CCN(CC5=C(c6ccc(Cl)cc6)CCC(C)(C)C5)CC4)cc3)cc2S(=O)(=O)C(F)(F)F)CC1)OC(C)(C)C (stereo partly shown) [Compound 26] | > 50 nM | > 50 nM | 10 to 50 nM | > 10000 nM | 
CC(C)OP(=O)(CCCN1CCN(CC[C@H](CSc2ccccc2)Nc2ccc(S(=O)(=O)NC(=O)c3ccc(N4CCN(CC5=C(c6ccc(Cl)cc6)CCC(C)(C)C5)CC4)cc3)cc2S(=O)(=O)C(F)(F)F)CC1)OC(C)C [Compound 27] | 1 to 10 nM | < 1 nM | < 1 nM | > 10000 nM | C (2 or less)
CCOP(=O)(CN1CCN(CC[C@H](CSc2ccccc2)Nc2ccc(S(=O)(=O)NC(=O)c3ccc(N4CCN(CC5=C(c6ccc(Cl)cc6)CCC(C)(C)C5)CC4)cc3)cc2S(=O)(=O)C(F)(F)F)CC1)OCOC(=O)C(C)(C)C (stereo partly drawn) [Compound 28, (((4-((R)-3-((4-(N-(4-(4-((4′-Chloro-4,4-dimethyl-3,4,5,6-tetrahydro-[1,1′-biphenyl]-2-yl)methyl)piperazin-1-yl)benzoyl)sulfamoyl)-2-((trifluoromethyl)sulfonyl)phenyl)amino)-4-(phenylthio)butyl)piperazin-1-yl)methyl)(ethoxy)phosphoryl)oxy)methyl pivalate] | 10 to 50 nM | < 1 nM | 1 to 10 nM | < 1000 nM | B (between 2 and 10)
CCOP(=O)(CN1CCN(CC[C@H](CSc2ccccc2)N(c2ccc(S(=O)(=O)NC(=O)c3ccc(N4CCN(CC5=C(c6ccc(Cl)cc6)CCC(C)(C)C5)CC4)cc3)cc2S(=O)(=O)C(F)(F)F)S(C)(=O)=O)CC1)OCC [Compound 29] | > 50 nM | 10 to 50 nM | 10 to 50 nM | 1000 to 10000 nM | C (2 or less)
CCOP(=O)(O)CN1CCN(CC[C@H](CSc2ccccc2)N(c2ccc(S(=O)(=O)NC(=O)c3ccc(N4CCN(CC5=C(c6ccc(Cl)cc6)CCC(C)(C)C5)CC4)cc3)cc2S(=O)(=O)C(F)(F)F)S(C)(=O)=O)CC1 [Compound 30] | > 50 nM | 1 to 10 nM | 1 to 10 nM | 1000 to 10000 nM | 
CCOP(=O)(O)CC1CCN(CC[C@H](CSc2ccccc2)Nc2ccc(S(=O)(=O)NC(=O)c3ccc(N4CCN(CC5=C(c6ccc(Cl)cc6)CCC(C)(C)C5)CC4)cc3)cc2S(=O)(=O)C(F)(F)F)CC1 [Compound 49, Ethylhydrogen((1-((R)-3-((4-(N-(4-(4-((4′-chloro-4,4-dimethyl-3,4,5,6-tetrahydro-[1,1′-biphenyl]-2-yl)methyl)piperazin-1-yl)benzoyl)sulfamoyl)-2-((trifluoromethyl)sulfonyl)phenyl)amino)-4-(phenylthio)butyl)piperidin-4-yl)methyl)phosphonate] | 1 to 10 nM | < 1 nM | < 1 nM |  | 
